One experiment has as its target Bcl-2 protein (histag-Bcl-2, UniProtKB P10415) (Homo sapiens (Human), UniProt P10415). In words: Inhibition of Bcl-2 by the fluorescence polarisation technique. The experiment is classed as binding. Conditions: incubation for 2 hours, read-out: IC50 (nM) Bcl-2 FP. The procedure, abridged:
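Fluorescence polarisation competition: His-tagged Bcl-2 (2.50×10^−8 M final) with fluorescein-labelled peptide (1.00×10^−8 M final) in 10 mM Hepes, 150 mM NaCl, 0.05% Tween20, pH 7.4. Increasing compound concentrations were added. Polarisation was read after 2 h incubation.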
On the technique in general: In fluorescence polarisation assays a small probe gives low polarisation when free and higher when bound to something large.

Experiment [1] relates to RS4;11 leukaemia tumour line. In words: In vitro cytotoxicity (Microculture Tetrazolium Assay). It counts as cell-based. Conditions: Homo sapiens, RS4-11, 48 h, RS4;11 cells, exposed for 48 hours, cell viability; read-out: IC50 (nM) MTT RS4;11. The method, then: The cytotoxicity studies were carried out on the RS4;11 leukaemia tumour line.
The cells are distributed onto microplates and exposed to the test compounds for 48 hours.
The cell viability is then quantified by a colorimetric assay, the Microculture Tetrazolium Assay (Cancer Res., 1987, 47, 939-942).

Structures are written as SMILES. Counter-ions that a name gives are not always drawn.

Sequence of Bcl-2 protein (P10415 whole entry): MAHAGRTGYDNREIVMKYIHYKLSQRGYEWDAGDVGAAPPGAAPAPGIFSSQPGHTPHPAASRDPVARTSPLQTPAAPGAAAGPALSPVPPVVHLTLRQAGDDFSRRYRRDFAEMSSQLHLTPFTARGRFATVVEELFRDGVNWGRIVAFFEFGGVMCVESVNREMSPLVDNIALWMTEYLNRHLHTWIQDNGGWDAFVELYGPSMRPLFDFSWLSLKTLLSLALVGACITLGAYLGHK

As usually defined, the IC50 is the midpoint of a concentration-inhibition curve. `Cc1c(C(=O)N(c2ccccc2)c2ccc(O)cc2)cc(-c2cc3c(cc2C(=O)N2Cc4ccccc4C[C@H]2C)OCO3)n1CCN(C)C` [Example 98, 1-[2-(Dimethylamino)ethyl]-N-(4-hydroxyphenyl)-2-methyl-5-(6-{[(3R)-3-methyl-3,4-dihydroisoquinolin-2(1H)-yl]carbonyl}-1,3-benzodioxol-5-yl)-N-phenyl-1H-pyrrole-3-carboxamide hydrochloride]: the half-inhibitory concentration (IC50) on Bcl-2 protein amounted to 7.6 nM; in experiment [1], 68.3 nM.

As for `COCCN(C)CCn1c(-c2cc3c(cc2C(=O)N2Cc4ccccc4C[C@H]2C)OCO3)cc(C(=O)N(c2ccc(O)cc2)c2cnn(C)c2)c1C` [Example 99, N-(4-Hydroxyphenyl)-1-{2-[(2-methoxyethyl)(methyl)amino]ethyl}-2-methyl-5-(6-{[(3R)-3-methyl-3,4-dihydroisoquinolin-2(1H)-yl]carbonyl}-1,3-benzodioxol-5-yl)-N-(1-methyl-1H-pyrazol-4-yl)-1H-pyrrole-3-carboxamide hydrochloride], the IC50 on Bcl-2 protein turned out to be 6.4 nM; in experiment [1] it was 108 nM.

In the case of `COc1cc(C(=O)N2Cc3ccccc3C[C@H]2CN2CCOCC2)c(-c2[nH]c(C)c(C(=O)N(c3ccc(O)cc3)c3cnn(C)c3)c2C)cc1F` [Example 100, 5-(5-Fluoro-4-methoxy-2-{[(3S)-3-(morpholin-4-ylmethyl)-3,4-dihydroisoquinolin-2(1H)-yl]carbonyl}phenyl)-N-(4-hydroxyphenyl)-4,2-dimethyl-N-(1-methyl-1H-pyrazol-4-yl)-1H-pyrrole-3-carboxamide hydrochloride], the concentration for half-maximal inhibition (IC50) on Bcl-2 protein worked out at 22.9 nM; in experiment [1] it was 193 nM.

`COc1cc(-c2cc(C(=O)N(c3ccc(O)cc3)c3cnn(C)c3)c(C)n2C)c(C(=O)N2Cc3ccccc3C[C@H]2CN2CCOCC2)cc1F` [Example 101, 5-(4-Fluoro-5-methoxy-2-{[(3S)-3-(morpholin-4-ylmethyl)-3,4-dihydroisoquinolin-2(1H)-yl]carbonyl}phenyl)-N-(4-hydroxyphenyl)-1,2-dimethyl-N-(1-methyl-1H-pyrazol-4-yl)-1H-pyrrole-3-carboxamide hydrochloride]: the results for the concentration for half-maximal inhibition (IC50) (at Bcl-2 protein; in experiment [1]) were 21.1 nM and 743 nM, respectively.

Regarding `Cc1c(C(=O)N(c2ccc(O)cc2)c2cnc3c(ccn3C)c2)cc(-c2cc(Cl)ccc2C(=O)N2Cc3ccccc3C[C@H]2CN2CCN(C)CC2)n1C` [Example 102, 5-(5-Chloro-2-{[(3S)-3-[(4-methylpiperazin-1-yl)methyl]-3,4-dihydroisoquinolin-2(1H)-yl]carbonyl}phenyl)-N-(4-hydroxyphenyl)-1,2-dimethyl-N-(1-methyl-1H-pyrrolo[2,3-b]pyridin-5-yl)-1H-pyrrole-3-carboxamide trihydrochloride], the IC50 on Bcl-2 protein was determined as 2 nM; in experiment [1], 6.51 nM.

On to `Cc1c(C(=O)N(c2ccc(O)cc2)c2cc(C#N)n(C)c2)cc(-c2cc(Cl)ccc2C(=O)N2Cc3ccccc3C[C@H]2CN2CCOCC2)n1C` [Example 108, 5-(5-Chloro-2-{[(3S)-3-(morpholin-4-ylmethyl)-3,4-dihydroisoquinolin-2(1H)-yl]carbonyl}phenyl)-N-(5-cyano-1-methyl-1H-pyrrol-3-yl)-N-(4-hydroxyphenyl)-1,2-dimethyl-1H-pyrrole-3-carboxamide hydrochloride], for which the IC50 on Bcl-2 protein is 3.9 nM; in experiment [1], 15.4 nM.

Consider `Cc1c(C(=O)N(c2ccc(O)cc2)c2cccc(C#N)n2)cc(-c2cc(Cl)ccc2C(=O)N2Cc3ccccc3C[C@H]2CN2CCOCC2)n1C` [Example 109, 5-(5-Chloro-2-{[(3S)-3-(morpholin-4-ylmethyl)-3,4-dihydroisoquinolin-2(1H)-yl]carbonyl}phenyl)-N-(6-cyanopyridin-2-yl)-N-(4-hydroxyphenyl)-1,2-dimethyl-1H-pyrrole-3-carboxamide hydrochloride], for which the IC50 on Bcl-2 protein is 91.5 nM; in experiment [1] it was 930 nM.
